Where only a bound is given, the exact number is not on record here.

Data on ten compounds can be found in patent US8202885B2, “Bridged six-membered ring compounds” (Actelion Pharmaceuticals Ltd., priority 2007, dated 2012).

This assay concerns human Cav3.1 Cav3.2 or Cav3.3 channel. As to the kind of experiment: In vitro assay T channel (FLIPR calcium fluorescence). Format: cell-based. The note with it: HEK293 cells expressing human Cav3.1, Cav3.2 or Cav3.3; 10 mM Ca2+-induced fluo-4 fluorescence; determined up to 10 μM; read-out: T channel antagonistic activity IC50. The method, boiled down: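 HEK293 cells stably expressing human Cav3.1, Cav3.2 or Cav3.3 loaded with fluo-4 AM (3 μM), preincubated 3 min with antagonist, then stimulated with 10 mM Ca2+ in TEA-chloride/HEPES buffer pH 7.2. FLIPR fluorescence read every 2 s for 8 min; IC50 from peak area versus vehicle, tested up to 10 μM.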
As a reminder, the IC50 is the concentration that gives 50% inhibition. For `COc1cccc2[nH]c(CCCN(C)CC[C@]3(OC(=O)NC(C)C)C[C@H]4CC[C@@H]3C=C4c3ccccc3)nc12` (relative stereo) [Example 26E, rac-Isopropyl-carbamic acid (1R*,2R*,4R*)-2-(2-{[3-(4-methoxy-1H-benzoimidazol-2-yl)-propyl]-methyl-amino}-ethyl)-5-phenyl-bicyclo[2.2.2]oct-5-en-2-yl ester], the IC50 stood at 1.11 µM.

As to `CN(CCCc1ccnc2ccccc12)CC[C@]1(O)C[C@H]2CC[C@@H]1C=C2c1ccccc1` (relative stereo) [Example 50, rac-(1R*,2R*,4R*)-2-{2-[Methyl-(3-quinolin-4-yl-propyl)-amino]-ethyl}-5-phenyl-bicyclo[2.2.2]oct-5-en-2-ol], the IC50 is more than 10 µM. Regarding `CCCC1=C(C)[C@H]2CC[C@@H]1C[C@@]2(O)CCN(C)CCCc1nc2ccccc2[nH]1` (relative stereo) [Example 16, rac-(1R*,2R*,4R*)-2-(2-{[3-(1H-Benzoimidazol-2-yl)-propyl]-methyl-amino}-ethyl)-6-methyl-5-propyl-bicyclo[2.2.2]oct-5-en-2-ol], the IC50 amounted to 5.69 µM. `COc1ccc(CCCN(C)CC[C@]2(O)C[C@H]3CC[C@@H]2C=C3c2ccccc2)cc1OC` (relative stereo) [Example 39, rac-(1R*,2R*,4R*)-2-(2-{[3-(3,4-Dimethoxy-phenyl)-propyl]-methyl-amino}-ethyl)-5-phenyl-bicyclo[2.2.2]oct-5-en-2-ol]: the IC50 is more than 10 µM. The value for `Cc1cccc(C)c1C1=C[C@H]2CC[C@@H]1C[C@]2(CCN(C)CCCc1nc2ccccc2[nH]1)OC(=O)C(C)C` (relative stereo) [Example 3A, rac-Isobutyric acid (1R*,2R*,4R*)-2-(2-{[3-(1H-benzoimidazol-2-yl)-propyl]-methyl-amino}-ethyl)-5-(2,6-dimethyl-phenyl)-bicyclo[2.2.2]oct-5-en-2-yl ester] was 4.6 µM. For the compound `CN(CCCc1nc2ccccc2[nH]1)CC[C@]1(O)C[C@H]2CC[C@@H]1C=C2c1ccc2ccccc2c1` (relative stereo) [Example 10, rac-(1R*,2R*,4R*)-2-(2-{[3-(1H-Benzoimidazol-2-yl)-propyl]-methyl-amino}-ethyl)-5-naphthalen-2-yl-bicyclo[2.2.2]oct-5-en-2-ol], the IC50 amounted to 5.87 µM. As for `CCCC1=C(C)[C@H]2CC[C@@H]1C[C@]2(CCN(C)CCCc1nc2ccccc2[nH]1)OC(=O)C(C)C` (relative stereo) [Example 16A, rac-Isobutyric acid (1R*,2R*,4R*)-2-(2-{[3-(1H-benzoimidazol-2-yl)-propyl]-methyl-amino}-ethyl)-6-methyl-5-propyl-bicyclo[2.2.2]oct-5-en-2-yl ester], the figure is 2.39 µM; as for `CC(C)C(=O)O[C@@]1(CCN(C)CCCc2nc3cc(Cl)c(Cl)cc3[nH]2)C[C@H]2CC[C@@H]1C=C2c1ccccc1` (relative stereo) [Example 27A, rac-Isobutyric acid (1R*,2R*,4R*)-2-(2-{[3-(5,6-dichloro-1H-benzoimidazol-2-yl)-propyl]-methyl-amino}-ethyl)-5-phenyl-bicyclo[2.2.2]oct-5-en-2-yl ester], 6.74 µM. As for `CC(C)C(=O)OC1(CCN(C)CCCc2nc3ccccc3[nH]2)CC2CCC1C1=C2CCc2ccccc21` (racemic) [Example 18A, rac-Isobutyric acid (1R*,3R*,4R*)-1,2,3,4,9,10-hexahydro-3-hydroxy-3-{N-methyl-N-(3-benzimidazol-2-ylpropyl)aminoethyl}-1,4-ethanophenanthrene ester], the figure is 2.05 µM. Regarding `Cc1cc2cc(CCCN(C)CC[C@]3(OC(=O)C(C)C)C[C@H]4CC[C@@H]3C=C4c3ccccc3)cnc2o1` (relative stereo) [Example 42A, rac-Isobutyric acid (1R*,2R*,4R*)-2-(2-{methyl-[3-(2-methyl-furo[2,3-b]pyridin-5-yl)-propyl]-amino}-ethyl)-5-phenyl-bicyclo[2.2.2]oct-5-en-2-yl ester], the IC50 was more than 10 µM.
